Experiments:
Experiment in all cases: relative viability (nuclei count vs DMSO), 5 days (fraction); higher = more cells survive
Decitabine + Trametinib = compound: Nc1ncn([C@H]2C[C@H](O)[C@@H](CO)O2)c(=O)n1 [Decitabine] + CC(=O)Nc1cccc(-n2c(=O)n(C3CC3)c(=O)c3c(Nc4ccc(I)cc4F)n(C)c(=O)c(C)c32)c1 [Trametinib] (partner 0.02 µM)
Method in brief: (§1)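 One day after seeding in 1536-well plates, lung cancer cell lines were dosed by pin tool. Dosing was either single-drug or a fixed anchor-drug dose plus five library-drug doses (not always all listed) in √10 steps. After 5 days, nuclei were stained in one fix-and-stain step and counted on 4× images, and relative viability is the nuclei count of treated wells over that of vehicle wells, given as the median of duplicate plates.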

Decitabine + Pemetrexed = compound: Nc1ncn([C@H]2C[C@H](O)[C@@H](CO)O2)c(=O)n1 [Decitabine] + Nc1nc2[nH]cc(CCc3ccc(C(=O)N[C@@H](CCC(=O)O)C(=O)O)cc3)c2c(=O)[nH]1 [Pemetrexed] (partner 0.2 µM)
Method in brief: as §1

Decitabine + Phenformin = compound: Nc1ncn([C@H]2C[C@H](O)[C@@H](CO)O2)c(=O)n1 [Decitabine] + N=C(N)NC(=N)NCCc1ccccc1 [Phenformin] (partner 250 µM)
Method in brief: as §1

[1] = compound: O=C(C[C@H]1NCCC[C@@H]1O)Cn1cnc2cc(Br)c(Cl)cc2c1=O (racemic) [Halofuginone] + Nc1ncn([C@H]2C[C@H](O)[C@@H](CO)O2)c(=O)n1 [Decitabine] (partner 2 µM)
Method in brief: as §1

Cell Line | relative viability (Decitabine + Trametinib; first compound 0.04 µM) | relative viability (Decitabine + Trametinib; first compound 0.1265 µM) | relative viability (Decitabine + Trametinib; first compound 0.4 µM) | relative viability (Decitabine + Trametinib; first compound 1.265 µM) | relative viability (Decitabine + Trametinib; first compound 4 µM) | relative viability (Decitabine + Pemetrexed; first compound 0.04 µM) | relative viability (Decitabine + Pemetrexed; first compound 0.1265 µM) | relative viability (Decitabine + Pemetrexed; first compound 0.4 µM) | relative viability (Decitabine + Pemetrexed; first compound 1.265 µM) | relative viability (Decitabine + Pemetrexed; first compound 4 µM) | relative viability (Decitabine + Phenformin; first compound 0.04 µM) | relative viability (Decitabine + Phenformin; first compound 0.1265 µM) | relative viability (Decitabine + Phenformin; first compound 0.4 µM) | relative viability (Decitabine + Phenformin; first compound 1.265 µM) | relative viability (Decitabine + Phenformin; first compound 4 µM) | relative viability ([1]; first compound 0.001 µM) | relative viability ([1]; first compound 0.003162 µM) | relative viability ([1]; first compound 0.01 µM) | relative viability ([1]; first compound 0.03162 µM) | relative viability ([1]; first compound 0.1 µM)
NCI-H460 | 0.173 | 0.229 | 0.214 | 0.109 | 0.13 | 0.0582 | 0.0551 | 0.0502 | 0.0449 | 0.0449 | 0.473 | 0.473 | 0.472 | 0.223 | 0.157 | 0.47 | 0.509 | 0.518 | 0.501 | 0.0841
EMC-BAC-2 | – | 0.935 | 0.795 | 0.841 | 0.8 | – | 0.407 | 0.412 | 0.36 | 0.354 | 0.514 | 0.541 | 0.462 | 0.414 | 0.406 | 0.989 | 1 | 0.917 | 0.874 | 0.409
NCI-H23 | 0.344 | 0.365 | 0.238 | 0.191 | 0.255 | 0.572 | 0.546 | 0.322 | 0.294 | 0.272 | 0.579 | 0.548 | 0.297 | 0.242 | 0.244 | 0.333 | 0.314 | 0.313 | 0.346 | 0.273
NCI-H1793 | 0.399 | 0.407 | 0.463 | 0.339 | 0.35 | 0.692 | 0.875 | 0.511 | 0.44 | 0.303 | 0.384 | 0.411 | 0.336 | 0.305 | 0.244 | 0.511 | 0.6 | 0.505 | 0.5 | 0.21
A-427 | 0.594 | 0.677 | 0.461 | 0.394 | 0.401 | 0.847 | 0.779 | 0.466 | 0.474 | 0.474 | 0.239 | 0.265 | 0.19 | 0.18 | 0.164 | 0.626 | 0.596 | 0.541 | 0.564 | 0.52
NCI-H322M | 0.508 | 0.453 | 0.6 | 0.457 | 0.486 | 0.549 | 0.602 | 0.534 | 0.709 | 0.53 | 0.647 | 0.745 | 0.6 | 0.478 | 0.549 | 0.71 | 0.657 | 0.681 | 0.657 | 0.53
COR-L23 | 0.374 | 0.452 | 0.321 | 0.219 | 0.23 | 0.198 | 0.207 | 0.18 | 0.178 | 0.196 | 0.362 | 0.311 | 0.303 | 0.253 | 0.253 | 0.518 | 0.511 | 0.421 | 0.465 | 0.217
SW 900 | 0.389 | 0.435 | 0.288 | 0.262 | 0.288 | 0.415 | 0.411 | 0.345 | 0.277 | 0.303 | 0.319 | 0.32 | 0.269 | 0.19 | 0.219 | 0.484 | 0.418 | – | 0.443 | 0.358
NCI-H2085 | 0.514 | 0.451 | 0.394 | 0.364 | 0.308 | 0.782 | 0.807 | 0.511 | 0.513 | 0.364 | 0.516 | 0.51 | 0.381 | 0.361 | 0.394 | 0.562 | 0.542 | 0.546 | 0.581 | 0.52
NCI-H2087 | 0.175 | 0.179 | 0.189 | 0.179 | 0.163 | 0.573 | 0.49 | 0.451 | 0.291 | 0.267 | 0.411 | 0.359 | 0.291 | 0.242 | 0.25 | 0.3 | 0.356 | 0.308 | 0.27 | 0.228
HCC-366 | 0.361 | 0.334 | 0.258 | 0.12 | 0.109 | 0.16 | 0.115 | 0.0833 | 0.0595 | 0.0583 | 0.505 | 0.528 | 0.392 | 0.244 | 0.155 | 0.385 | 0.418 | 0.339 | 0.373 | 0.336
NCI-H2126 | 0.576 | 0.545 | 0.474 | 0.422 | 0.44 | 0.68 | 0.648 | 0.391 | 0.453 | 0.341 | 0.478 | 0.483 | 0.423 | 0.451 | 0.468 | 0.586 | 0.612 | 0.58 | 0.52 | 0.588
SK-LU-1 | 0.443 | 0.528 | 0.386 | 0.45 | 0.365 | 0.826 | 0.754 | 0.406 | 0.513 | 0.49 | 0.42 | 0.448 | 0.278 | 0.344 | 0.297 | 0.705 | 0.599 | 0.714 | 0.606 | 0.422
HCC-78 | 0.758 | 0.688 | 0.581 | 0.544 | 0.451 | 0.902 | 1.18 | 0.874 | 0.825 | 0.864 | 0.626 | 0.634 | 0.593 | 0.505 | 0.477 | 0.688 | 0.678 | 0.667 | 0.69 | 0.714
LCLC-97TM1 | 0.219 | 0.213 | 0.183 | 0.144 | 0.155 | 0.173 | 0.134 | 0.0965 | 0.125 | 0.13 | 0.304 | 0.308 | 0.312 | 0.293 | 0.124 | 0.263 | 0.222 | 0.203 | 0.19 | 0.227
NCI-H838 | 0.476 | 0.397 | 0.237 | 0.283 | 0.279 | 0.225 | 0.236 | 0.2 | 0.19 | 0.198 | 0.398 | 0.409 | 0.247 | 0.266 | 0.242 | 0.502 | 0.465 | 0.445 | 0.458 | 0.281

Source: the supplement of paper PMC10307832
